Laboratory results as given in patent publication US11730686B2, “Cosmetic skincare compositions” (THE BOOTS COMPANY PLC, priority 2017, dated 2023).

Test system: Interleukin-6 (IL-6)
Assay: Interleukin-6 (IL-6) assay: UV-stressed skin cells, IL-6 ELISA of media supernatant
Type: cell-based
Settings: FIG. 2; active alone at 0.0001% by weight of the composition; skin cells (keratinocytes or fibroblasts), UV dose 61,500 Joules/m^2
Experimental: Interleukin-6 (IL-6) Assay Interleukin-6 (IL-6) bioactivity in skin cells was measured. IL-6 is a cytokine and used as a biomarker for inflammation. Skin cells (keratinocytes or fibroblasts) were placed under UV stress to induce an IL-6 response in the presence of an active or blend of actives to determine the activity of that active or blend of actives in inhibiting an IL-6 response. Skin cells (keratinocytes or fibroblasts) were taken from culture, seeded in a 96-well plate at a density of 5000 cells per well in cell growth media with supplements and left to incubate for 24 hours at 37° C. Determination of cell number for the purpose of plating was performed in accordance with standard methods known in the art. After incubation, the cell growth media was replaced with 100 μl of PBS without calcium and magnesium and containing the relevant concentration of active(s) required. Controls include untreated irradiated and non-irradiated samples which require 100 μl pure PBS without calcium and magnesium or containing a maximum of 0.1%. Dimethyl sulfoxide (DMSO) was used where necessary to dissolve the active(s). Salicylic acid is the positive control for this assay. The cells were incubated with the actives for 30 minutes at 37° C. before being irradiated with a UV dose of 61,500 Joules/m^2. […]

SMILES: CCCCCCCCCCCCCC[C@@H](O)[C@@H](O)[C@@H](N)CO.Cl [phytosphingosine hydrochloride]
- inhibited IL-6 activity: 58%
